Measured values from patent publication US7138361B2, “Herbicidal heterocycles” (E. I. du Pont de Nemours and Company, priority 2000, dated 2006).

Legend:
Format in all cases: in vivo
Sunflower = assay: Test C preemergence; conditions: Rate 31 g/ha, scale 0 to 100
[1] = tested on: chickweed (Stellaria media); assay: Test C postemergence
How it was run: (§1)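 Compounds in non-phytotoxic solvent with surfactant applied preemergence to planted seeds and postemergence to plants at 1- to 4-leaf stage (2–18 cm). Kept in greenhouse 12–14 days, then visually rated against controls on a 0 (no effect) to 100 (complete control) scale.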

[2] = tested on: cocklebur (Xanthium strumarium); assay: Test C postemergence
How it was run: as §1

[3] = tested on: yellow nutsedge (Cyperus esculentus); assay: Test C postemergence
How it was run: as §1

[4] = tested on: Surinam grass (Brachiaria decumbens); assay: Test C postemergence
How it was run: as §1

[5] = tested on: giant foxtail (Setaria faberii); assay: Test C postemergence
How it was run: as §1

corn (Zea mays) = assay: Test C postemergence
How it was run: as §1

kochia (Kochia scoparia) = assay: Test C postemergence
How it was run: as §1

[6] = tested on: common ragweed (Ambrosia elatior); assay: Test C postemergence
How it was run: as §1

[7] = tested on: pigweed (Amaranthus retroflexus); assay: Test C postemergence
How it was run: as §1

[8] = tested on: velvetleaf (Abutilon theophrasti); assay: Test C postemergence
How it was run: as §1

[9] = tested on: lambsquarters (Chenopodium album); assay: Test C postemergence
How it was run: as §1

[10] = tested on: bermudagrass (Cynodon dactylon); assay: Test C postemergence
How it was run: as §1

[11] = tested on: johnsongrass (Sorghum halepense); assay: Test C postemergence
How it was run: as §1

[12] = tested on: goosegrass (Eleusine indica); assay: Test C postemergence
How it was run: as §1

soybean (Glycine max) = assay: Test C postemergence
How it was run: as §1

[13] = tested on: crabgrass (Digitaria sanguinalis); assay: Test C postemergence
How it was run: as §1

[14] = tested on: common ragweed (Ambrosia elatior); assay: Test C preemergence
How it was run: as §1

[15] = Rate 125 g/ha, scale 0 to 100, 0 no effect, 100 complete control
[16] = Rate 250 g/ha, scale 0 to 100 (0 no effect, 100 complete control)
[17] = preemergence, Rate 31 g/ha, scale 0 to 100
[18] = Rate 62 g/ha, scale 0 to 100, 0 no effect, 100 complete control

`CCC(CC)c1ccn(C2CCN(c3ccc(C)c(OC)c3)C2=O)n1` (centres unmarked) [Compound 81] was tested, and the “Plant response rating, Sunflower” value (Sunflower) was 0, the “Plant response rating, Chickweed” value ([1]; Rate 31 g/ha, scale 0 to 100) was 0 and the “Plant response rating, Chickweed” value ([1]; Rate 62 g/ha, scale 0 to 100) was 20. For the same molecule, the “Plant response rating, Chickweed” value [1, 15] was 20, the “Plant response rating, Chickweed” value [1, 16] was 60 and the “Plant response rating, Cocklebur” value ([2]; Rate 31 g/ha, scale 0 to 100) was 0. The “Plant response rating, Cocklebur” value ([2]; Rate 62 g/ha, scale 0 to 100) was 0, the “Plant response rating, Cocklebur” value [2, 15] was 20 and the “Plant response rating, Cocklebur” value [2, 16] was 50. The “Plant response rating, Nutsedge” value ([3]; Rate 31 g/ha, scale 0 to 100) was 0, the “Plant response rating, Nutsedge” value ([3]; Rate 62 g/ha, scale 0 to 100) was 0 and the “Plant response rating, Nutsedge” value [3, 15] was 0. For the same molecule, the “Plant response rating, Nutsedge” value [3, 16] was 0, the “Plant response rating, Surinam grass” value ([4]; Rate 31 g/ha, scale 0 to 100) was 0 and the “Plant response rating, Surinam grass” value ([4]; Rate 62 g/ha, scale 0 to 100) was 0. The “Plant response rating, Surinam grass” value [4, 15] was 0, the “Plant response rating, Surinam grass” value [4, 16] was 0 and the “Plant response rating, Foxtail, Giant” value ([5]; Rate 31 g/ha, scale 0 to 100) was 0. The “Plant response rating, Foxtail, Giant” value ([5]; Rate 62 g/ha, scale 0 to 100) was 0, the “Plant response rating, Foxtail, Giant” value [5, 15] was 0 and the “Plant response rating, Foxtail, Giant” value [5, 16] was 0. For the same molecule, the “Plant response rating, Corn” value (corn (Zea mays); Rate 31 g/ha, scale 0 to 100) was 0, the “Plant response rating, Corn” value (corn (Zea mays); Rate 62 g/ha, scale 0 to 100) was 0 and the “Plant response rating, Corn” value (corn (Zea mays); [15]) was 0. For the same molecule, the “Plant response rating, Corn” value (corn (Zea mays); [16]) was 0, the “Plant response rating, Kochia” value (kochia (Kochia scoparia); Rate 31 g/ha, scale 0 to 100) was 40 and the “Plant response rating, Kochia” value (kochia (Kochia scoparia); Rate 62 g/ha, scale 0 to 100) was 50. The “Plant response rating, Kochia” value (kochia (Kochia scoparia); [15]) was 50, the “Plant response rating, Kochia” value (kochia (Kochia scoparia); [16]) was 70 and the “Plant response rating, Ragweed, Common” value ([6]; Rate 31 g/ha, scale 0 to 100) was 0. For the same molecule, the “Plant response rating, Ragweed, Common” value ([6]; Rate 62 g/ha, scale 0 to 100) was 0, the “Plant response rating, Ragweed, Common” value [6, 15] was 0 and the “Plant response rating, Ragweed, Common” value [6, 16] was 0. For the same molecule, the “Plant response rating, Pigweed” value ([7]; Rate 31 g/ha, scale 0 to 100) was 0, the “Plant response rating, Pigweed” value ([7]; Rate 62 g/ha, scale 0 to 100) was 0 and the “Plant response rating, Pigweed” value [7, 15] was 0. For the same molecule, the “Plant response rating, Pigweed” value [7, 16] was 60, the “Plant response rating, Velvetleaf” value ([8]; Rate 31 g/ha, scale 0 to 100) was 20 and the “Plant response rating, Velvetleaf” value ([8]; Rate 62 g/ha, scale 0 to 100) was 20. The “Plant response rating, Velvetleaf” value [8, 15] was 20, the “Plant response rating, Velvetleaf” value [8, 16] was 20 and the “Plant response rating, Lambsquarters” value ([9]; Rate 31 g/ha, scale 0 to 100) was 0. For the same molecule, the “Plant response rating, Lambsquarters” value ([9]; Rate 62 g/ha, scale 0 to 100) was 60, the “Plant response rating, Lambsquarters” value [9, 16] was 80 and the “Plant response rating, Bermudagrass” value ([10]; Rate 31 g/ha, scale 0 to 100) was 0. For the same molecule, the “Plant response rating, Bermudagrass” value ([10]; Rate 62 g/ha, scale 0 to 100) was 0, the “Plant response rating, Bermudagrass” value [10, 15] was 0 and the “Plant response rating, Bermudagrass” value [10, 16] was 0. The “Plant response rating, Johnsongrass” value ([11]; Rate 31 g/ha, scale 0 to 100) was 0, the “Plant response rating, Johnsongrass” value ([11]; Rate 62 g/ha, scale 0 to 100) was 0 and the “Plant response rating, Johnsongrass” value [11, 15] was 0. For the same molecule, the “Plant response rating, Johnsongrass” value [11, 16] was 0, the “Plant response rating, Goosegrass” value ([12]; Rate 31 g/ha, scale 0 to 100) was 0 and the “Plant response rating, Goosegrass” value ([12]; Rate 62 g/ha, scale 0 to 100) was 0. The “Plant response rating, Goosegrass” value [12, 15] was 0, the “Plant response rating, Goosegrass” value [12, 16] was 20 and the “Plant response rating, Soybean” value (soybean (Glycine max); Rate 31 g/ha, scale 0 to 100) was 50. For the same molecule, the “Plant response rating, Soybean” value (soybean (Glycine max); Rate 62 g/ha, scale 0 to 100) was 60, the “Plant response rating, Soybean” value (soybean (Glycine max); [15]) was 70 and the “Plant response rating, Soybean” value (soybean (Glycine max); [16]) was 90. The “Plant response rating, Crabgrass” value ([13]; Rate 31 g/ha, scale 0 to 100) was 0, the “Plant response rating, Crabgrass” value ([13]; Rate 62 g/ha, scale 0 to 100) was 0 and the “Plant response rating, Crabgrass” value [13, 15] was 0. For the same molecule, the “Plant response rating, Crabgrass” value [13, 16] was 0, the “Plant response rating, Ragweed, Common” value [14, 15] was 100 and the “Plant response rating, Ragweed, Common” value [14, 17] was 30. For the same molecule, the “Plant response rating, Ragweed, Common” value ([14]; preemergence, Rate 250 g/ha, scale 0 to 100, 0 no effect, 100 complete control) was 100.
`O=C1C(n2ccc(C3CCC3)n2)SCN1c1cccc(C(F)(F)F)c1` (centres unmarked) [Compound 37] was tested, and the “Plant response rating, Sunflower” value (Sunflower) was 0, the “Plant response rating, Chickweed” value ([1]; Rate 31 g/ha, scale 0 to 100) was 0 and the “Plant response rating, Chickweed” value [1, 18] was 0. The “Plant response rating, Chickweed” value [1, 15] was 0, the “Plant response rating, Chickweed” value [1, 16] was 0 and the “Plant response rating, Cocklebur” value ([2]; Rate 31 g/ha, scale 0 to 100) was 0. The “Plant response rating, Cocklebur” value [2, 15] was 0, the “Plant response rating, Cocklebur” value [2, 16] was 0 and the “Plant response rating, Nutsedge” value ([3]; Rate 31 g/ha, scale 0 to 100) was 0. The “Plant response rating, Nutsedge” value [3, 15] was 0, the “Plant response rating, Nutsedge” value [3, 16] was 0 and the “Plant response rating, Surinam grass” value ([4]; Rate 31 g/ha, scale 0 to 100) was 0. For the same molecule, the “Plant response rating, Surinam grass” value [4, 15] was 0, the “Plant response rating, Surinam grass” value [4, 16] was 0 and the “Plant response rating, Foxtail, Giant” value ([5]; Rate 31 g/ha, scale 0 to 100) was 0. The “Plant response rating, Foxtail, Giant” value [5, 15] was 0, the “Plant response rating, Foxtail, Giant” value [5, 16] was 0 and the “Plant response rating, Corn” value (corn (Zea mays); Rate 31 g/ha, scale 0 to 100) was 0. The “Plant response rating, Corn” value (corn (Zea mays); [15]) was 0, the “Plant response rating, Corn” value (corn (Zea mays); [16]) was 0 and the “Plant response rating, Kochia” value (kochia (Kochia scoparia); Rate 31 g/ha, scale 0 to 100) was 0. For the same molecule, the “Plant response rating, Kochia” value (kochia (Kochia scoparia); [15]) was 20, the “Plant response rating, Kochia” value (kochia (Kochia scoparia); [16]) was 70 and the “Plant response rating, Ragweed, Common” value ([6]; Rate 31 g/ha, scale 0 to 100) was 0. For the same molecule, the “Plant response rating, Ragweed, Common” value [6, 15] was 0, the “Plant response rating, Ragweed, Common” value [6, 16] was 0 and the “Plant response rating, Pigweed” value ([7]; Rate 31 g/ha, scale 0 to 100) was 0. The “Plant response rating, Pigweed” value [7, 15] was 0, the “Plant response rating, Pigweed” value [7, 16] was 0 and the “Plant response rating, Velvetleaf” value ([8]; Rate 31 g/ha, scale 0 to 100) was 0. For the same molecule, the “Plant response rating, Velvetleaf” value [8, 15] was 0, the “Plant response rating, Velvetleaf” value [8, 16] was 0 and the “Plant response rating, Lambsquarters” value ([9]; Rate 31 g/ha, scale 0 to 100) was 20. For the same molecule, the “Plant response rating, Lambsquarters” value [9, 15] was 20, the “Plant response rating, Lambsquarters” value [9, 16] was 50 and the “Plant response rating, Bermudagrass” value ([10]; Rate 31 g/ha, scale 0 to 100) was 0. The “Plant response rating, Bermudagrass” value [10, 18] was 0, the “Plant response rating, Bermudagrass” value [10, 15] was 0 and the “Plant response rating, Bermudagrass” value [10, 16] was 0. For the same molecule, the “Plant response rating, Johnsongrass” value ([11]; Rate 31 g/ha, scale 0 to 100) was 0, the “Plant response rating, Johnsongrass” value [11, 15] was 0 and the “Plant response rating, Johnsongrass” value [11, 16] was 0. The “Plant response rating, Goosegrass” value ([12]; Rate 31 g/ha, scale 0 to 100) was 0, the “Plant response rating, Goosegrass” value [12, 15] was 0 and the “Plant response rating, Goosegrass” value [12, 16] was 0. The “Plant response rating, Soybean” value (soybean (Glycine max); Rate 31 g/ha, scale 0 to 100) was 0, the “Plant response rating, Soybean” value (soybean (Glycine max); [15]) was 0 and the “Plant response rating, Soybean” value (soybean (Glycine max); [16]) was 0. For the same molecule, the “Plant response rating, Crabgrass” value ([13]; Rate 31 g/ha, scale 0 to 100) was 0, the “Plant response rating, Crabgrass” value [13, 15] was 0 and the “Plant response rating, Crabgrass” value [13, 16] was 0. For the same molecule, the “Plant response rating, Ragweed, Common” value [14, 18] was 0, the “Plant response rating, Ragweed, Common” value [14, 17] was 0 and the “Plant response rating (0 to 100), Ragweed, Common” value ([14]; preemergence, Rate 250 g/ha, visual evaluation after 12 to 14 days) was 60. For the same molecule, the “Plant response rating, Ragweed, Common” value ([14]; preemergence, Rate 125 g/ha, scale 0 to 100, 0 no effect, 100 complete control) was 20.
